Source: paper PMC8467814, “RSK1 vs. RSK2 Inhibitory Activity of the Marine β-Carboline Alkaloid Manzamine A: A Biochemical, Cervical Cancer Protein Expression, and Computational Study” (Marine Drugs, 2021)

Legend:
[1] = biological target: T1, RSK2 (90 kDa ribosomal protein S6 kinase 2) (Homo sapiens, UniProt P51812); assay: radiometric […]-ATP kinase assay with KKLNRTLSVA peptide, P81 filter; assay type: biochemical
T1 construct: gene RPS6KA3

[2] = biological target: T2, RSK1 (90 kDa ribosomal protein S6 kinase 1; MAPKAP-K1α) (Rattus norvegicus, UniProt Q63531); assay: radiometric […]-ATP kinase assay with KKLNRTLSVA peptide, P81 filter; also […] inhibition at […] in kinase panel; assay type: biochemical
T2 construct: gene Rps6ka1
T2 sequence (Q63531 whole entry): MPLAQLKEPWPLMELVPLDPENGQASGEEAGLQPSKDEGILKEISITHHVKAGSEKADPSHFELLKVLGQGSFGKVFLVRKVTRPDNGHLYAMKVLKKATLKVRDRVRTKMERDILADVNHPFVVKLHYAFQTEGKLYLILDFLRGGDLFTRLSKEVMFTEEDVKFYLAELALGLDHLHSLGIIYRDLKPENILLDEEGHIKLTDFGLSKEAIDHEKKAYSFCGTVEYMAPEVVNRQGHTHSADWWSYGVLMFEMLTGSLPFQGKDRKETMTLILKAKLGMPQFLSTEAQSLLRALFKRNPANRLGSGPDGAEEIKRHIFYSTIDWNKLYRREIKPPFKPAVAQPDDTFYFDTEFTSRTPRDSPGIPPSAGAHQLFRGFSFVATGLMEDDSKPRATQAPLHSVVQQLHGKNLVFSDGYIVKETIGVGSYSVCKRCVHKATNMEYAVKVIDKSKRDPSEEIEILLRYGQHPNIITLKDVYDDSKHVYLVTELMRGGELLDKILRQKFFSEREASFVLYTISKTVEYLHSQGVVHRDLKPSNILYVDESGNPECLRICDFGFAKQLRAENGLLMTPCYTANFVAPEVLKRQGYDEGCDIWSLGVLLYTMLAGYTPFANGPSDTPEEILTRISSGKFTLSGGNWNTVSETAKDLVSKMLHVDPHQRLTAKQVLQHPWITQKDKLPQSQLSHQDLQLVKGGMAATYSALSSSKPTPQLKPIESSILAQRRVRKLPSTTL

T1 sequence (P51812 whole entry): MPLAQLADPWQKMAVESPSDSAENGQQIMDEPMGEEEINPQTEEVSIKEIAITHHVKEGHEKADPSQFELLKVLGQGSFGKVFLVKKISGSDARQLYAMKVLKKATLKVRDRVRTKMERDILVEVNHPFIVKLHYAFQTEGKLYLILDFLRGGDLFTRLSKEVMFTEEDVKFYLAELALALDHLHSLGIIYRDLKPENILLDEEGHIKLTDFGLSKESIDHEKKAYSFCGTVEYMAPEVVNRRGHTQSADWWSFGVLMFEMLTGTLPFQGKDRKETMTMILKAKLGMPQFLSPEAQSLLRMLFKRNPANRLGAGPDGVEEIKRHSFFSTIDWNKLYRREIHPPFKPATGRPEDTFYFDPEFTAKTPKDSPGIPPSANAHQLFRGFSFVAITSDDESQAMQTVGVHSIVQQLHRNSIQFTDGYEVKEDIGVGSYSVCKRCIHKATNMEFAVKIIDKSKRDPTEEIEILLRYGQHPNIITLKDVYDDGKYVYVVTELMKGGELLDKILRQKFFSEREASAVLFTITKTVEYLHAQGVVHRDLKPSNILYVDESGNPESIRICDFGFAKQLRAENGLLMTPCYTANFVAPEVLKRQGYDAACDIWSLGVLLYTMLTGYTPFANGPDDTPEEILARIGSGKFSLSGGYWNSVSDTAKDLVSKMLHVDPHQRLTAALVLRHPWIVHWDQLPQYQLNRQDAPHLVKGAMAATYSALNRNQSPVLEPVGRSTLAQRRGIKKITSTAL

Work on `O[C@]12C=C(c3nccc4c3[nH]c3ccccc34)[C@@H]3CCN(CCCC/C=C\CC1)C[C@@]31C[C@@H]3/C=C\CCCCN3[C@H]12` [MZA, Manzamine A] yielded an IC50 [1] of 108 µM and an IC50 [2] of 15 µM.
